Experimental data as given in patent US20250204528A1, “USE OF 2-AMINO-3-INDOLYL BUTYRIC ACID OR 3-METHYLPYRROLIDINE-2-CARBOXYLIC ACID AS PLANT IMMUNITY ELICITOR” (NANJING TIANNONG BIOTECHNOLOGY CO., LTD, priority 2021, published 2025).
“And” between values parts separate entries of the source, which are not always exact repeats. Identical values can stand only once.

Tests used:
Type in all cases: in vivo
[1] = tested on: tea trees (Baiye 1 cutting seedlings); test: Tea tree under low temperature stress; conditions: for Cold damage index (%): 24 h at −4° C., recovery 3 d; for PIABS: after 24 h at −4° C.; for Cold damage index reduced by / PIABS of the tea leaves improved by: vs control
Protocol: The test tea trees were Baiye 1 cutting seedlings.
The tea seedlings with consistent growth vigor were selected to be transplanted into a plastic pot with the diameter of 18 cm and placed in a greenhouse at 25° C. and with the humidity of 60%-70% to be adapted for growing for about one week for the experiment. Concentrations at 0 nm, 1 nm, 10 nm, 100 nm and 1,000 nm were set in the experiment. Meanwhile, 0.02% Tween 20 was added as a surfactant. The spraying treatment was the same as that of the ryegrass in example 1. A low temperature stress was performed for 24 h at −4° C. The tea seedlings after the stress was finished were taken out and subjected to a dark treatment at normal temperature for 30 min. The chlorophyll fluorescences of leaves at the tops of the tea seedlings were measured by using the plant efficiency Handy-PEA. Then the tea seedlings were placed in the greenhouse at 25° C. for recovery for 3 d. The cold damage conditions were observed, counted and graded. The cold damage index counting and grading standard was shown in table 13 and a calculation formula was as follows.

[2] = tested on: Arabidopsis thaliana; test: Arabidopsis thaliana under high temperature stress; set-up: Heat damage index: scale not given here; conditions: for Heat damage index: 45° C. 12 h, recovery 7 d; for PIABS: photosynthetic performance index after 45° C. 12 h; for Heat damage index reduced by: vs control group
Protocol: Arabidopsis thaliana seeds were sown in a pot with the diameter of 8.5 cm according to about 50 seeds per pot and planted in a greenhouse at 25° C. with the humidity of 60%-70% and the light intensity of 100 μmolm^−2s^−1 (16 h light/8 h dark). The treatment was started when the Arabidopsis thaliana normally grew for 21 d. Concentrations at 0 nm, 1 nm, 10 nm, 100 nm and 1,000 nm were set in the experiment. Meanwhile, 0.02% Tween 20 was added as a surfactant and four replicates were set. The spraying treatment was the same as that of the ryegrass in example 5. 24 h after the second spraying, the Arabidopsis thaliana was transferred to an illumination incubator at 45° C. for a high temperature stress treatment for 12 h. The chlorophyll fluorescences of the Arabidopsis thaliana leaf wafers were measured by using the plant efficiency Handy-PEA. The plants were taken out and transferred to the greenhouse at 25° C. for recovery for 7 d. The damage conditions of the plants were observed and counted, and the heat damage grades were calculated.

[3] = tested on: Pseudomonas syringae PstDC3000; test: Induction of Arabidopsis thaliana against infection by Pseudomonas syringae; conditions: for Disease index reduced by / Number of the bacteria in each milligram of the leaves reduced by: compared with blank control; for CFU (mg), number of bacteria in each milligram of the leaves / Disease index: 3 d after inoculation
Protocol: 2-amino-3-indolyl butyric acid was dissolved in sterile water and gradiently diluted with sterile water to obtain solutions of 100 nm, 1,000 nm and 10,000 nm. A blank control was additionally set. Meanwhile, 0.02% Tween 20 was added as a surfactant. Pseudomonas syringae PstDC3000 was coated on an LB plate and cultured at 28° C. for 48 h; monoclonal colonies were selected, inoculated into a 50-mL centrifuge tube containing 2 mL of a culture medium, and cultured on a shaking table at 28° C. and 250 rpm, the change of an OD600 value of the bacterial liquid was monitored every 1-2 h, and the culture of the bacteria was stopped before the OD600 value reached 0.8; 1 mL of the bacterial liquid was transferred to a sterile 1.5-mL centrifuge tube for centrifuging at 8,000 rpm for 2 min and the precipitate was collected; the supernatant was removed, the precipitate was washed 3 times with 10 mM of magnesium chloride and centrifuged, and finally the PstDC3000 was resuspended in 10 mM of magnesium chloride enable the OD600 value to reach […] for late use. Arabidopsis thaliana seeds were soaked in 75% alcohol for 3 min, washed with sterile water for 4 times and seeded in a culture dish containing ½ MS culture medium with 12 seeds sown on each culture dish. The ½ MS culture dish carrying the seeds were vernalized at 4° C. for 3 d to break dormancy and then placed in a culture room at 22° C. and the illumination intensity of 100 μEm^−2s^−1 (16 h light/8 h dark). When the seedlings grew for 2 weeks, 2-amino-3-indolyl butyric acid at different concentrations were slowly poured into the culture dish until the whole Arabidopsis thaliana seedlings were submerged for 2-3 min, then the treatment solution was completely poured from the culture dish, and the treatment was performed once every other 24 h for a total of 2 times. The PstDC3000 suspension (OD600=0.01) was inoculated to the Arabidopsis thaliana leaves by using the same submerging method 24 h after the 2nd treatment, and then the culture dish was sealed by a medical breathable adhesive plaster after the inoculation and placed in the culture room for continuous culture. After 3 d, the number of the bacteria subjected to different treatments was determined, the disease condition of the Arabidopsis thaliana was observed, and the disease indexes were calculated by using the same calculation formula as that in example 2.
Grading standard of diseases caused by PstDC3000 (taking leaves as units): • grade 0: the leaf surfaces were free of disease spots; • grade 1: the area of the disease spots accounted for 0%-10% of that of the whole leaves; • grade 2: the area of the disease spots accounted for 10%-25% of that of the whole leaves; • grade 3: the area of the disease spots accounted for 25%-50% of that of the whole leaves; • grade 4: the area of the disease spots accounted for 50%-75% of that of the whole leaves; and • grade 5: the area of the disease spots accounted for 75%-100% of that of the whole leaves.

[4] = treatment concentration 1,000 nm
[5] = treatment concentration 10,000 nm

| SMILES | Cold damage index (%) ([1]; 1 nm) | PIABS ([1]; 1 nm) | Cold damage index (%) ([1]; 10 nm) | PIABS ([1]; 10 nm) | Cold damage index (%) ([1]; 100 nm) | PIABS ([1]; 100 nm) | Cold damage index (%) ([1]; 1,000 nm) | PIABS ([1]; 1,000 nm) | Cold damage index reduced by ([1]; 1,000 nm) | PIABS of the tea leaves improved by ([1]; 1,000 nm) | Heat damage index ([2]; 1 nm) | PIABS ([2]; 1 nm) | Heat damage index ([2]; 10 nm) | PIABS ([2]; 10 nm) | Heat damage index ([2]; 100 nm) | PIABS ([2]; 100 nm) | PIABS increased by (times) compared with the control group ([2]; 1,000 nm) | Heat damage index ([2]; 1,000 nm) | PIABS ([2]; 1,000 nm) | Heat damage index reduced by ([2]; 1,000 nm) | also measured |
| --- | --- | --- | --- | --- | --- | --- | --- | --- | --- | --- | --- | --- | --- | --- | --- | --- | --- | --- | --- | --- | --- |
| CC(c1c[nH]c2ccccc12)C(N)C(=O)O (centres unmarked) | 52% | 26.3 ± 0.04 | 45% | 30.10 ± 1.70c | 35% | 36.51 ± 3.14ab | 28% | 39.36 ± 2.15a | 40% | 52% | 58 | 0.90 ± 0.04e | 46 | 1.14 ± 0.15 days | 33 | 3.28 ± 0.20c | 20 times | 10 | 7.13 ± 0.23b | 65% | Disease index reduced by ([3]; 100 nm): 51.25%; Number of the bacteria in each milligram of the leaves reduced by ([3]; 100 nm): 76.75%; Disease index reduced by ([3]; 1,000 nm): 53.92%; Number of the bacteria in each milligram of the leaves reduced by ([3]; 1,000 nm): 80.97%; Disease index reduced by ([3]; 10,000 nm): 64.42%; Number of the bacteria in each milligram of the leaves reduced by ([3]; 10,000 nm): 85.039% and 85.03%; CFU (mg), number of bacteria in each milligram of the leaves ([3]; treatment concentration 100 nm): 7.44 × 10^5 CFU (mg); Disease index ([3]; treatment concentration 100 nm): 40.53 ± 1.95b; CFU (mg), number of bacteria in each milligram of the leaves [3, 4]: 6.09 × 10^5 CFU (mg); Disease index [3, 4]: 38.31 ± 1.80b; CFU (mg), number of bacteria in each milligram of the leaves [3, 5]: 4.79×10^5 CFU (mg) |
| CC1CCNC1C(=O)O (centres unmarked) [3-methylpyrrolidine-2-carboxylic acid] | 47% | 23.01 ± 0.02 | 43% | 29.65 ± 1.81c | 34% | 35.01 ± 0.27b | 27% | 41.07 ± 0.31a | 48% | 138% | 48 | 1.87 ± 0.03e | 37 | 4.06 ± 0.17 days | 30 | 6.53 ± 0.23c | 23 times | 8 | 10.26 ± 0.46b | 68% | Disease index reduced by ([3]; 100 nm): 41.13%; Number of the bacteria in each milligram of the leaves reduced by ([3]; 100 nm): 70.78%; Disease index reduced by ([3]; 1,000 nm): 52.47%; Number of the bacteria in each milligram of the leaves reduced by ([3]; 1,000 nm): 80.90%; Disease index reduced by ([3]; 10,000 nm): 72.69%; Number of the bacteria in each milligram of the leaves reduced by ([3]; 10,000 nm): 94.92% and 94.90%; CFU (mg), number of bacteria in each milligram of the leaves ([3]; treatment concentration 100 nm): 9.41 × 10^5 CFU (mg); Disease index ([3]; treatment concentration 100 nm): 50.14 ± 1.54b; CFU (mg), number of bacteria in each milligram of the leaves [3, 4]: 6.15 × 10^5 CFU (mg); Disease index [3, 4]: 40.48 ± 0.17c; CFU (mg), number of bacteria in each milligram of the leaves [3, 5]: 1.64×10^5 CFU (mg) |
